pKd: −log10 of the molar value.
Legend:
FcMBL [1] = target: T1, FcMBL (Homo sapiens, UniProt P11226); assay: FcMBL ELISA capture in blood: background and haemocyte binding (FIGS. 3A-3B); conditions: for background of the FcMBL ELISA: ligand added to FcMBL prior to the capture of mannan in the presence of blood
Procedure: FIGS. 3A-3B are data graphs showing effects of adding a blocking agent (e.g., ˜10 mM glucose) on binding of a target entity (e.g., LPS) or an interfering agent (e.g., haemocytes) to a target-binding agent (e.g., FcMBL beads) in donor blood.
(§1) Without wishing to be bound by theory, this reduced background can be related to the prevention of FcMBL low affinity binding to erythrocytes (or other endogenous components in blood) by the medium affinity sugar that in turn can be displaced by the higher affinity targets such as mannan, lipopolysaccharides (LPS), and/or a microbe or fragment thereof.

FcMBL [2] = target: T1, FcMBL; assay: Binding affinity (Kd) of medium affinity ligands for FcMBL; conditions: read-out: Kd (medium affinity ligand of FcMBL)
Text: as §1

T1 sequence (P11226 with tags, fused parts or gaps limits assumed): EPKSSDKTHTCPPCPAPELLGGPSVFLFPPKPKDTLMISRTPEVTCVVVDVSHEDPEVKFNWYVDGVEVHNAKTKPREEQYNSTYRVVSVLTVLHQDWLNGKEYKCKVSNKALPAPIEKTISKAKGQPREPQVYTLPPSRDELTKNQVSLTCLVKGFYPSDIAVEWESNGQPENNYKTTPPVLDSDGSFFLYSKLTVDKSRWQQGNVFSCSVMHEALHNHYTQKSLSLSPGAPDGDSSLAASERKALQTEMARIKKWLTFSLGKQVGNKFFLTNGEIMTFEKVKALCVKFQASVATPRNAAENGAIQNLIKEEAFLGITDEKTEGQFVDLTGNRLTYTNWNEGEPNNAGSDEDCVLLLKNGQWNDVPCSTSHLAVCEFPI

Molecule | background by binding of erythrocytes or other endogenous blood components to FcMBL (FcMBL [1]; addition of a small amount of mannan) | pKd (FcMBL [2]) | background of the FcMBL ELISA (FcMBL [1])
mannan | decrease the background | – | –
OC[C@H]1O[C@H](O[C@H]2[C@H](O)[C@@H](O)C(O)O[C@@H]2CO)[C@H](O)[C@@H](O)[C@@H]1O (mixture of isomers) [maltose] | – | 1.82 | decreases the background
CC(=O)N[C@H]1C(O)O[C@H](CO)[C@@H](O)[C@@H]1O[C@H](C)C(=O)O (some centres unmarked) [N-acetyl Muramic acid] | – | 1.77 | decreases the background

Reference: US10551379B2, “Methods and compositions for improving detection and/or capture of a target entity” (PRESIDENT AND FELLOWS OF HARVARD COLLEGE, priority 2013, dated 2020)
